Assay results: patent US20130005824A1, “TREATMENT OF ISCHEMIC TISSUE” (The Research Foundation of State University of New York, priority 2009, published 2013)
Read-outs that look alike come from different tables or passages of the source.

Columns and labels:
[1] = tested on: hamster cheek pouch arterioles (arcade arteriole and terminal arteriolar feed); experiment: Microvascular response (arteriolar diameter change) to locally applied curcumin in hamster cheek pouch tissue, intravital microscopy; assay type: in vivo; conditions: for EC50: Mesocricetus auratus
rat comb burn model = experiment: Burn injury progression in the rat hot comb burn model, intravenous curcumin; assay type: in vivo; conditions: for interspaces that progressed to full thickness necrosis, histologic analysis: day 7, control 67%
Procedure: In this study, we determined the effects of curcumin on burn progression in the rat hot comb model. […] Pure curcumin (99.9% as determined by HPLC and mass spectroscopy analysis) produced under GMP was acquired from ChromaDex, Inc for the studies described below.
Animals were randomized to receive one of six intravenous doses of curcumin (0.3, 1.0, 3.0, 10, 30, or 100 μg/kg) in 1 ml of phosphate buffered saline (PBS) or PBS alone (buffer control) administered via the tail vein at 1 and 24 hours after injury. […] Full-thickness biopsies from the interspaces 7 days after injury were evaluated for evidence of necrosis after H&E staining. The percentages of interspaces that progressed to necrosis were compared with chi-squared (χ2) tests. At the seventh day, the number of interspaces that processed to full thickness necrosis was 67% for control, 58, 53, 37, 63, 53, and 26% for 0.1, 0.3, 1, 3, 10, 30 and 100 μg/kg curcumin respectively as determined by histologic analysis. Similar results were obtained for the macroscopic evaluation at day 2, 5, and 7. […] The same experiment was repeated a second time and gave essentially the same results.

[2] = curcumin alone, similar for arcade and feed

COc1cc(/C=C/C(=O)CC(=O)/C=C/c2ccc(O)c(OC)c2)ccc1O [curcumin, (E,E)-1,7-bis (4-hydroxy-3-methoxyphenyl)-1,6-heptadiene-3,5,-dione]
curcumin-induced dilation remaining with LNNA ([1]; 10^−4M LNNA, curcumin 10^−10 though 10^−7 M): significant curcumin-induced dilation remained | curcumin-induced dilation remaining with LNNA ([1]; 10^−5M LNNA, 10^−12 to 10^−10 M curcumin): a significant dilation remained | curcumin-induced dilation with LNNA ([1]; 10^−5M LNNA, terminal feed arterioles, similar pattern in arcade): attenuated | EC50 ([1]; curcumin alone, micropipette 60 s, similar for arcade and feed, read-out: logEC50 for dilation (converted)): 316 pM | EC50 ([1]; curcumin alone, similar for arcade and feed, read-out: logEC50 for constriction (converted)): 3980 pM | EC50 ([1]; phentolamine 10^−5 M, constrictor component removed, read-out: logEC50, dilation to curcumin with phentolamine (converted)): 100 ± 4 pM | EC50 ([1]; propranolol 10^−5 M, dilation component removed, read-out: logEC50, constriction to curcumin with propranolol (converted)): 10 pM | effect of simultaneous PD142893 on the curcumin response ([1]; PD142893 (endothelin antagonist) 10^−5 M): no effect | effect of PD142893 on maximal dilation and constriction to curcumin ([1]; PD142893 (endothelin antagonist), no effect on baseline diameters): diminished the maximal dilation and enhanced the maximal constriction | curcumin-induced dilation with cAMP blockade ([1]; Rp-8-br-cAMPS, curcumin 10^−6M, arcade, but not terminal arterioles): significantly suppressed | curcumin-induced constriction with cAMP blockade ([1]; Rp-8-br-cAMPS, curcumin 10^−8M, arcade, but not terminal arterioles): attenuated | curcumin-induced dilation with cGMP blockade ([1]; Rp-8-br-cGMPS, terminal and arcade arterioles): prevented all curcumin-induced dilation | local response after microvascular preconditioning ([1]; after deliberate microvascular preconditioning): predominantly constriction | effect of simultaneous atropine on the curcumin response ([1]; atropine (muscarinic antagonist) 10^−7 M): no effect | effect of atropine on maximal dilation and constriction to curcumin ([1]; atropine (muscarinic antagonist), no effect on baseline diameters): diminished the maximal dilation and enhanced the maximal constriction | constrictor and dilatory (cGMP and cAMP mediated) responses before and after repeated exposure (potential cytotoxicity) ([1]; baseline diameter recovery and tone after repeated 60 second exposures): unchanged | terminal arteriole diameter, 60 second time-course ([1]; curcumin 10^−6M continuously applied): initial vasodilation at 20 seconds was followed by vasoconstriction that peaked at 60 seconds | terminal arteriole diameter, 60 second time-course ([1]; curcumin 10^−10M continuously applied): sustained dilation | response to curcumin with propranolol and phentolamine together ([1]; curcumin 10^−10 M, 10^−8M and 10^−6M, terminal and arcade arterioles): blocked all response | peak constriction [1, 2]: −15±5% | peak dilation [1, 2]: +40±8% | peak dilation, terminal versus arcade arterioles ([1]; dose-response 10^−13M to 10^−3M, 20 s and 60 s): significantly greater for terminal arterioles than for arcade arterioles | concentration inducing vasodilation after versus before preconditioning ([1]; in vivo studies to date, after preconditioning): lower concentrations | effect on arteriolar diameter during induced endothelial dysfunction ([1]; nitro-arginine added to the tissue bath): the dilation component was potentiated and constriction was attenuated | peak dilation to curcumin with phentolamine, arcade ([1]; phentolamine 10^−5 M, arcade arteriole): +34±9 | peak dilation to curcumin with phentolamine, feed ([1]; phentolamine 10^−5 M, terminal feed arteriole): +65 +10 | peak constriction to curcumin with propranolol ([1]; propranolol 10^−5 M): −30 ±7% | constriction response to curcumin with phentolamine ([1]; terminal arteriole, phentolamine 10^−5M): abolished | dilation response to curcumin with propranolol ([1]; terminal arteriole, propranolol 10^−5M): abolished | progression to necrosis compared to control (rat comb burn model; 3 μg/kg and 100 μg/kg i.v., p<0.01, macroscopic evaluation and histologic analysis): significantly less progression to necrosis | interspaces that progressed to full thickness necrosis, histologic analysis (rat comb burn model; fifth value listed (30 μg/kg by method)): 53% | interspaces that progressed to full thickness necrosis, histologic analysis (rat comb burn model; fourth value listed (10 μg/kg by method)): 63% | interspaces that progressed to full thickness necrosis, histologic analysis (rat comb burn model; i.v. at 1 and 24 h after injury, first value listed (0.3 μg/kg by method, 0.1 μg/kg by the sentence)): 58% | interspaces that progressed to full thickness necrosis, histologic analysis (rat comb burn model; last value listed (100 μg/kg)): 26% | interspaces that progressed to full thickness necrosis, histologic analysis (rat comb burn model; second value listed (1 μg/kg by method)): 53% | interspaces that progressed to full thickness necrosis, histologic analysis (rat comb burn model; third value listed (3 μg/kg by method)): 37%
